The source of these data is patent publication US8580965B2, “Substituted sulfonamide compounds” (Gruenenthal GmbH, priority 2006, dated 2013).

In test [1] the target is T1, B1R receptor of the rat (bradykinin 1 receptor) (Rattus norvegicus, UniProt P97583).
T1 construct: host or cells: CHO K1 cells (rB1R cells)
T1 sequence (P97583 1-337): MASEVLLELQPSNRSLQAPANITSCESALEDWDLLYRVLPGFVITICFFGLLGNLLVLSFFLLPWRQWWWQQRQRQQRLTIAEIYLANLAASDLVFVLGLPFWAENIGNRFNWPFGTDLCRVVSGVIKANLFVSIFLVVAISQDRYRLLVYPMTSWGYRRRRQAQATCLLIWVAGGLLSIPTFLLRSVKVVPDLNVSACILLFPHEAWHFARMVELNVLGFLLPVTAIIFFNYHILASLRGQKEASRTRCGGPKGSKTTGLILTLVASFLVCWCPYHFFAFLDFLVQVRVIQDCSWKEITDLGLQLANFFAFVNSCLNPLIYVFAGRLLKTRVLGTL
The test is described as follows: FLIPR Ca2+ assay (Fluo-4) on CHO K1 cells stably transfected with the B1R gene of the rat; % activation and % inhibition at 10 μM. The following applies: CHO-K1, test substance 10 μM; CHO K1 rB1R cells; Ca2+ inflow after 100 nM Des-Arg9-bradykinin; read-out: B1R antagonism, rat [10 μM] % inhibition. The format is cell-based. The gist of the method:
(§1)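 CHO K1 cells stably expressing human or rat B1R, Fluo-4 loaded, read by FLIPR (peak fluorescence). Compound at 10 µM first gives % activation versus agonist; after 10 min, agonist (human: 0.5 nM Lys-Des-Arg9-bradykinin; rat: 100 nM Des-Arg9-bradykinin) gives % inhibition relative to maximal inhibition.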

The target in test [2] is T2, human B1R receptor (bradykinin 1 receptor) (Homo sapiens, UniProt P46663).
T2 construct: host or cells: CHO K1 cells (hB1R cells)
T2 sequence (P46663 1-353): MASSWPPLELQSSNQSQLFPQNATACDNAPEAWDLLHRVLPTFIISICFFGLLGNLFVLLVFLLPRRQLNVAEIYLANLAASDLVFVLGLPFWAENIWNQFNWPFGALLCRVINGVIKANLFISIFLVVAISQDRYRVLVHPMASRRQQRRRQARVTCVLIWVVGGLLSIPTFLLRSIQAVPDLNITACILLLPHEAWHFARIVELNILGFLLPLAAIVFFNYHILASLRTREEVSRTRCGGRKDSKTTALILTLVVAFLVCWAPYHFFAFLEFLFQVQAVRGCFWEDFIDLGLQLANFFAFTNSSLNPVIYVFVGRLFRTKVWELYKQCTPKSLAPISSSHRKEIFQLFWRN
Kind of test: FLIPR Ca2+ assay (Fluo-4) on CHO K1 cells stably transfected with the human B1R gene; % activation and % inhibition at 10 μM. The format is cell-based. The following applies: CHO-K1, test substance 10 μM; CHO K1 hB1R cells; Ca2+ inflow after 0.5 nM Lys-Des-Arg9-bradykinin; read-out: B1R antagonism, human [10 μM] % inhibition. In a few lines: as §1

For the molecule `Cc1cc(S(=O)(=O)N(C)CCOCC(=O)N2CCC(O)(c3ccccc3)CC2)c(C)cc1Cl` [Example 152, 4-chloro-N-(2-(2-(4-hydroxy-4-phenylpiperidin-1-yl)-2-oxoethoxy)ethyl)-N,2,5-trimethylphenylsulfonamide], the figures for the inhibition at 10 µM in test [1] and in test [2] were 77.2% and 81.6%, respectively.
On the same counts, the results for `Cc1cc(S(=O)(=O)N(C)CCOCC(=O)N2CCC(O)(c3cccnc3)CC2)c(Cl)cc1Cl` [Example 199, 2,4-dichloro-N-(2-(2-(4-hydroxy-4-(pyridin-3-yl)piperidin-1-yl)-2-oxoethoxy)ethyl)-N,5-dimethylphenylsulfonamide] are 98.2% and 105%.
Regarding `COc1ccc(S(=O)(=O)N2CCC(OCC(=O)N3CCC(O)(Cc4ccccc4)CC3)(c3ccccc3)CC2)cc1` [Example 82, 1-(4-benzyl-4-hydroxy-piperidin-1-yl)-2-[1-(4-methoxy-phenylsulfonyl)-4-phenyl-piperidin-4-yloxy]-ethanone], the inhibition at 10 µM turned out to be 17.9% in test [1] and 9.32% in test [2].
The matching figures for `Cc1cc(S(=O)(=O)N(C)CCOCC(=O)N2CCC(O)(c3ccc(Cl)c(C(F)(F)F)c3)CC2)c(C)s1` [Example 259, N-(2-(2-(4-(4-chloro-3-(trifluoromethyl)phenyl)-4-hydroxypiperidin-1-yl)-2-oxoethoxy)ethyl)-N,2,5-trimethylthiophene-3-sulfonamide]: 93.3% and 94%.
`O=C(COCC1Cc2ccccc2N1S(=O)(=O)c1ccc(Cl)c(Cl)c1)N1CCC(O)(Cc2ccccc2)CC1` (centres unmarked) [Example 99, 1-(4-benzyl-4-hydroxy-piperidin-1-yl)-2-[1-(3,4-dichloro-phenylsulfonyl)-2,3-dihydro-1H-indol-2-ylmethoxy]-ethanone]: the inhibition at 10 µM in test [1] is -12.4%; in test [2] it was -22.9%.
As to `CN(CCOCC(=O)N1CCC(O)(c2ccccn2)CC1)S(=O)(=O)c1c(Cl)cc(Cl)cc1Cl` [Example 6, 2,4,6-trichloro-N-{2-[2-(4′-hydroxy-3′,4′,5′,6′-tetrahydro-2′H-[2,4′]bipyridinyl-1′-yl)-2-oxo-ethoxy]-ethyl}-N-methyl-phenylsulfonamide], the inhibition at 10 µM came out at 93.9% in test [1] and 100% in test [2].
With `COc1cc(C)c(S(=O)(=O)N(C)CCOCC(=O)N2CCC(O)(c3cccnc3)CC2)c(C)c1` [Example 143, N-(2-(2-(4-hydroxy-4-(pyridin-3-yl)piperidin-1-yl)-2-oxoethoxy)ethyl)-4-methoxy-N,2,6-trimethylphenylsulfonamide], the values for the inhibition at 10 µM in test [1] and in test [2] were 100% and 105%, respectively.
The matching figures for `COc1cc(C)c(S(=O)(=O)N2CCC(OCC(=O)N3CCC(O)(Cc4ccccc4)CC3)CC2)c(C)c1C` [Example 8, 1-(4-benzyl-4-hydroxy-piperidin-1-yl)-2-[1-(4-methoxy-2,3,6-trimethyl-phenylsulfonyl)-piperidin-4-yloxy]-ethanone]: 33.3% and 97.4%.
In the case of `COc1cc(C)c(S(=O)(=O)N(CCOCC(=O)N2CCC(O)(c3cccnc3)CC2)CC(C)C)c(C)c1C` [Example 241, N-(2-(2-(4-hydroxy-4-(pyridin-3-yl)piperidin-1-yl)-2-oxoethoxy)ethyl)-N-isobutyl-4-methoxy-2,3,6-trimethylphenylsulfonamide], the inhibition at 10 µM in test [1] worked out at 101%; in test [2], 103%.
Regarding `COc1cc(C)c(S(=O)(=O)N(CCOCC(=O)N2CCC(O)(Cc3ccccc3)CC2)CC2CC2)c(C)c1C` [Example 207, N-(2-(2-(4-benzyl-4-hydroxypiperidin-1-yl)-2-oxoethoxy)ethyl)-N-(cyclopropylmethyl)-4-methoxy-2,3,6-trimethylphenylsulfonamide], the inhibition at 10 µM turned out to be 99.2% in test [1] and 94.2% in test [2].
On the same counts, the results for `O=C(COCC1CCCCN1S(=O)(=O)c1c(Cl)cccc1Cl)N1CCC(O)(c2cccnc2)CC1` (centres unmarked) [Example 196, 2-((1-(2,6-dichlorophenylsulfonyl)piperidin-2-yl)methoxy)-1-(4-hydroxy-4-(pyridin-3-yl)piperidin-1-yl)ethanone] are 96.5% and 103%.
For the molecule `CN(CCOCC(=O)N1CCC(O)(c2ccccn2)CC1)S(=O)(=O)c1c(Cl)cccc1Cl` [Example 10, 2,6-dichloro-N-{2-[2-(4′-hydroxy-3′,4′,5′,6′-tetrahydro-2′H-[2,4′]bipyridinyl-1′-yl)-2-oxo-ethoxy]-ethyl}-N-methyl-phenylsulfonamide], the inhibition at 10 µM in test [1] was 73.6%; in test [2], 90.3%.
`O=C(COCC1CCCN1S(=O)(=O)c1c(Cl)cc(Cl)cc1Cl)N1CCC(O)(c2cccnc2)CC1` (centres unmarked) [Example 204, 1-(4-hydroxy-4-(pyridin-3-yl)piperidin-1-yl)-2-((1-(2,4,6-trichlorophenylsulfonyl)pyrrolidin-2-yl)methoxy)ethanone]: the inhibition at 10 µM was 98% in test [1] and 104% in test [2].
The matching figures for `O=C(COCC1CCCCN1S(=O)(=O)c1c(Cl)cc(C(F)(F)F)cc1Cl)N1CCC(O)(c2ccc(Cl)c(C(F)(F)F)c2)CC1` (centres unmarked) [Example 165, 1-(4-(4-chloro-3-(trifluoromethyl)phenyl)-4-hydroxypiperidin-1-yl)-2-((1-(2,6-dichloro-4-(trifluoromethyl)phenylsulfonyl)piperidin-2-yl)methoxy)ethanone]: 104% and 2.63%.
As for `O=C(COCC1CCCN1S(=O)(=O)c1c(Cl)cccc1Cl)N1CCC(O)(c2ccc(Cl)c(C(F)(F)F)c2)CC1` (centres unmarked) [Example 218, 1-(4-(4-chloro-3-(trifluoromethyl)phenyl)-4-hydroxypiperidin-1-yl)-2-((1-(2,6-dichlorophenylsulfonyl)pyrrolidin-2-yl)methoxy)ethanone], the inhibition at 10 µM in test [1] stood at 102%; in test [2], 103%.
In the case of `O=C(COC1CCCN(S(=O)(=O)c2ccccc2)C1)N1CCC(O)(c2ccccn2)CC1` (centres unmarked) [Example 51, 2-(1-phenylsulfonyl-piperidin-3-yloxy)-1-(4′-hydroxy-3′,4′,5′,6′-tetrahydro-2′H-[2,4′]bipyridinyl-1′-yl)-ethanone], the inhibition at 10 µM in test [1] was 10.8%; in test [2], -9.71%.
On to `CCN(CCOCC(=O)N1CCC(O)(Cc2ccccc2)CC1)S(=O)(=O)c1c(C)cc(OC)c(C)c1C` [Example 1, N-{2-[2-(4-benzyl-4-hydroxy-piperidin-1-yl)-2-oxo-ethoxy]-ethyl}-N-ethyl-4-methoxy-2,3,6-trimethyl-phenylsulfonamide], for which the inhibition at 10 µM in test [1] is 102%; in test [2], 104%.
In the case of `Cc1ccc(S(=O)(=O)N2CCC(OCC(=O)N3CCC(O)(Cc4ccccc4)CC3)C2)cc1` (centres unmarked) [Example 24, 1-(4-benzyl-4-hydroxy-piperidin-1-yl)-2-[1-(toluene-4-sulfonyl)-pyrrolidin-3-yloxy]-ethanone], the inhibition at 10 µM in test [1] came to 6.88%; in test [2], 12.1%.
On the same counts, the results for `COc1cc(C)c(S(=O)(=O)N2Cc3ccccc3CC2COCC(=O)N2CCC(O)(Cc3ccccc3)CC2)c(C)c1C` (centres unmarked) [Example 232, 1-(4-benzyl-4-hydroxypiperidin-1-yl)-2-((2-(4-methoxy-2,3,6-trimethylphenylsulfonyl)-1,2,3,4-tetrahydroisoquinolin-3-yl)methoxy)ethanone] are 63.1% and 54.5%.
Take `O=C(COCC1CCCN1S(=O)(=O)c1cc(Cl)sc1Cl)N1CCC(O)(c2cccnc2)CC1` (centres unmarked) [Example 203, 2-((1-(2,5-dichlorothiophen-3-ylsulfonyl)pyrrolidin-2-yl)methoxy)-1-(4-hydroxy-4-(pyridin-3-yl)piperidin-1-yl)ethanone]: the inhibition at 10 µM in test [1] stood at 85.1%; in test [2], 84.2%.
On the same counts, the results for `COc1cc(C)c(S(=O)(=O)N2CCCC2COCC(=O)N2CCC(O)(c3cccc(C(F)(F)F)c3)CC2)c(C)c1` (centres unmarked) [Example 217, 1-(4-hydroxy-4-(3-(trifluoromethyl)phenyl)piperidin-1-yl)-2-((1-(4-methoxy-2,6-dimethylphenylsulfonyl)pyrrolidin-2-yl)methoxy)ethanone] are 99.9% and 105%.
As to `O=C(COC1CCN(S(=O)(=O)c2c(Cl)cc(Cl)cc2Cl)C1)N1CCC(O)(Cc2ccccc2)CC1` (centres unmarked) [Example 109, 1-(4-benzyl-4-hydroxy-piperidin-1-yl)-2-[1-(2,4,6-trichloro-phenylsulfonyl)-pyrrolidin-3-yloxy]-ethanone], the inhibition at 10 µM in test [1] is 82.5%; in test [2], 103%.
